Results: ChEMBL document CHEMBL1150936, “Antioxidative bromoindole derivatives from the mid-intestinal gland of the muricid gastropod Drupella fragum” (J Nat Prod, 1998)

experiment: Antioxidant activity assessed as peroxide value relative to control; type: functional

SMILES	Activity (milliequivalent/kg)
Oc1cc(Br)c(O)c2[nH]ccc12	0.106
Cc1c(C)c2c(c(C)c1O)CC[C@@](C)(CCC[C@H](C)CCC[C@H](C)CCCC(C)C)O2	0.062
Oc1c(Br)cc2[nH]ccc2c1O	0.194
Cc1cc(C(C)(C)C)c(O)c(C(C)(C)C)c1	0.031
Oc1cc2cc[nH]c2cc1Br	0.036
